Measured values as given in patent US9248131B2, “Aquaporin modulators and methods of using them for the treatment of edema and fluid imbalance” (THE ARIZONA BOARD OF REGENTS ON BEHALF OF THE UNIVERSITY OF …, priority 2006, dated 2016).

Experiments:
[1] = biological target: T1, AQP4-expressing oocytes (Homo sapiens, UniProt P55087); assay: Simple screen: time to oocyte bursting in hypotonic saline; format: cell-based; settings: 100 μM; AQP4-expressing oocytes preincubated 10-15 min, then 100 mOsm saline
T1 construct: expressed in transfected cells; host or cells: Xenopus oocytes
Experimental: The composition of the library for initial AQP channel screening included various channel, transporter and receptor blocking compounds based on intuition and from clues regarding clinical side effects that involved water transporting tissues. In a simple screen (FIG. 1), control and AQP4-expressing oocytes were preincubated in isotonic saline (100 mM NaCl; 5 mM MgCl2; 5 mM HEPES, pH 7.3; ˜200 mOsm) containing the test compound for 10-15 min before each experiment; then the time to oocyte bursting (physical explosion) after transfer to 100 mOsm saline was monitored visually. […] Block was evident in the increased time required for bursting in hypotonic saline.

[2] = test system: cerebral ischemia (MCAO model); assay: Middle cerebral artery occlusion (MCAO) model, 1 h ischemia and 24 h reperfusion; format: in vivo, mice; settings: 60 mg/kg intravenous single bolus 10 min before reperfusion, 1 h ischemia
From the text: Anatomical measures of infarct size, brain volume, neurological assessments, and mortality rate can be used to assess the consequences of middle cerebral artery occlusion (MCAO) model in mice. The rodent MCAO model, an accepted model of cerebral ischemia and reperfusion (Clark et al., 1997), uses a silicone-coated filament to promote cerebral artery occlusion (Migliati et al., 2001). An innovative method to measure effective occlusion in real time is by laser Doppler monitoring of blood flow rate
Typical procedure for MCAO model in mice: Wild-type C57BL/6J male mice at 9-11 weeks old are anesthetized, and cerebral blood flow is recorded as baseline using laser Doppler. The monofilament is placed in the internal common carotid and advanced to the ostia of the middle cerebral artery. […] After 24 h, animals are evaluated for neurological, behavioral, and general deficits, and then sacrificed for anatomical analysis of the infarcted and contralateral control hemispheres. […]
FIG. 6 illustrates cerebral edema and infarct size in mice subjected to one hour of ischemia and 24 hours of reperfusion, with and without bumetanide (60 mg/kg) administered intravenously in a single bolus at 10 min before reperfusion. Stained with 2% TTC, the infarcted area is white; areas are analyzed using morphometric software by researchers blinded to the treatment group.

T1 sequence (P55087 whole entry, species assumed): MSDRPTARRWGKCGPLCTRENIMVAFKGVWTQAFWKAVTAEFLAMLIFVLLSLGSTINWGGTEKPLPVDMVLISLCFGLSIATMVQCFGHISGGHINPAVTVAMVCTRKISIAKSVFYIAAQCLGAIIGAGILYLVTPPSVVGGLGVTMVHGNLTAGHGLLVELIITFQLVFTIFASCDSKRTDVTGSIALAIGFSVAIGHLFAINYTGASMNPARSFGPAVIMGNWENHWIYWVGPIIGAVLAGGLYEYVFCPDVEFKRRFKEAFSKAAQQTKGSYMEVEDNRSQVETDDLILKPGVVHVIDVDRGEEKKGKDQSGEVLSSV

time to oocyte bursting [1]: significantly delayed bursting time
SMILES: CCCCNc1cc(C(=O)O)cc(S(N)(=O)=O)c1Oc1ccccc1 [bumetanide]
cerebral edema and infarct size, statistical significance (p<0.06) [2]: does not meet criteria, but indicates promise
